Results reported in patent publication US20090142330A1, “Use of inactive-plasmin to treat chronic inflammatory disease and tumors” (The Government of the United States of America as …, priority 2007, published 2009).

B1: inactive plasmin: plasmin in which the catalytic site had been irreversibly blocked with a peptide inhibitor; from Molecular Innovations, Inc. (protein)
chain: KVYLSECKTGNGKNYRGTMSKTKNGITCQKWSSTSPHRPRFSPATHPSEGLEENYCRNPDNDPQGPWCYTTDPEKRYDYCDILECEEECMHCSGENYDGKISKTMSGLECQAWDSQSPHAHGYIPSKFPNKNLKKNYCRNPDRELRPWCFTTDPNKRWELCDIPRCTTPPPSSGPTYQCLKGTGENYRGNVAVTVSGHTCQHWSAQTPHTHNRTPENFPCKNLDENYCRNPDGKRAPWCHTTNSQVRWEYCKIPSCDSSPVSTEQLAPTAPPELTPVVQDCYHGDGQSYRGTSSTTTTGKKCQSWSSMTPHRHQKTPENYPNAGLTMNYCRNPDADKGPWCFTTDPSVRWEYCNLKKCSGTEASVVAPPPVVLLPDVETPSEEDCMFGNGKGYRGKRATTVTGTPCQDWAAQEPHRHSIFTPETNPRAGLEKNYCRNPDGDVGGPWCYTTNPRKLYDYCDVPQCAAPSFDCGKPQVEPKKCPGRVVGGCVAHPHSWPWQVSLRTRFGMHFCGGTLISPEWVLTAAHCLEKSPRPSSYKVILGAHQEVNLEPHVQEIEVSRLFLEPTRKDIALLKLSSPAVITDKVIPACLPSPNYVVADRTECFITGWGETQGTFGAGLLKEAQLPVIENKVCNRYEFLNGRVQSTELCAGHLAGGTDSCQGDSGGPLVCFEKDKYILQGVTSWGLGCARPNKPGVYVRVSRFVTWIEGVMRNN

How the values were obtained:
[1] = test system: MMP-1 production by monocytes; assay: MMP-1 protein in monocyte conditioned media, Western blot; assay type: cell-based, human; details: for effect on HMW-uPA enhancement of MMP-1 / effect on plasmin enhancement of MMP-1 / effect on LPS-induced MMP-1 production: monocytes preincubated 30 min with agent; for effect on HMW-uPA enhancement of MMP-1: then LPS plus HMW-uPA; for effect on plasmin enhancement of MMP-1: then LPS plus plasmin; for effect on LPS-induced MMP-1 production: then LPS
Description: Reagents. High molecular weight urokinase plasminogen activator (HMW-uPA), low molecular weight uPA (LMW-uPA), amino-terminal fragment-uPA (ATF-uPA) and α2-antiplasmin were obtained from American Diagnostica Inc. (Stamford, Conn.). […] LPS Escherichia coli 05:B55 was purchased from Sigma-Aldrich (St. Louis, Mo.). ERK1/2/phospho-ERK1/2 and p38/phospho-p38 antibodies were from Cell Signaling Technology (Beverly, Mass.). MMP-1 antibodies used were rabbit polyclonal antibodies against MMP-1 (provided by Dr. Henning Birkedal-Hansen, NIDCR/NIH) and a mouse anti-human MMP-1 monoclonal antibody (Chemicon International, Inc., Temecula, Calif.). Rabbit anti-COX-2 antibodies were obtained from Cayman Chemical Company (Ann Arbor, Mich.) and mouse anti-β-actin antibodies were from Chemicon International, Inc., Temecula, Calif.). Purification and culture of human monocytes. Human peripheral blood cells were obtained by leukapheresis of non-disease subjects. The monocyte fraction was purified by counter-flow centrifugal elutriation as previously described (Wahl et al., Cell Immunol. 85: 373-383, 1984; and Wahl et al., “In Current Protocols in Immunology,” eds. John Wiley & Sons, Inc. NY. Vol. 2: 7.6A.1-7.6A.10., 2005) and contained greater than 90% monocytes as determined by morphology and flow cytometry. Monocytes were cultured in serum-free Dulbecco Modified Eagle's Medium (DMEM; Cambrex, Walkersville, Md.) supplemented with 2 mM L-glutamine (Mediatech, Herndon, Va.) and 10 μg/ml gentamycin (Cambrex, Walkersville, Md.). Western blot analysis of MMP-1, MAPKs and COX-2. For MMP-1 determination, purified monocytes were cultured at a density of 5×10^6/ml of DMEM in 12 well polystyrene plates (Corning Incorporated Life Sciences, Lowell, Mass.). After 36 to 48 hours of treatment with reagents, the conditioned media were centrifuged and collected. Bovine serum albumin (BSA; 40 μg/ml) was added to the culture supernatants prior to the precipitation of the proteins with cold ethanol (final concentration, 60%) for at least 15 min at −70° C. The proteins were pelleted by microcentrifuging at 20,800×g for 12 min, washed with ethanol, and lyophilized by rotary evaporation. The lyophilized proteins were resuspended in sodium dodecyl sulfate (SDS)-Laemmli buffer [500 mM Tris-HCl (pH 6.8)/10% SDS/0.01% bromophenol-blue/20% glycerol], reduced with 5% β-mercaptoethanol, heated for 4 min at 100° C., and electrophoresed on a 10 or 12% Tris-glycine gel in SDS running buffer [25 mM Tris-HCl (pH 8.3)/192 mM glycine/[…]]. The proteins were transferred onto 0.45 μm nitrocellulose in a buffer containing 25 mM Tris-HCl (pH 8.3)/192 mM glycine/20% methanol and blocked with 50 mM Tris-HCl (pH 7.5)/150 mM NaCl (TBS) containing 5% nonfat dry milk for at least 1 hour. The blots were then incubated overnight with antibodies against MMP-1.
Western blots for MMP-1, MAPKs and COX-2 were incubated overnight with primary antibodies, washed and analyzed by the addition of Alexa Fluor 680 goat anti-rabbit or Alexa Fluor 750 goat anti-mouse antibodies (Molecular Probes® Inc., Eugene, Oreg.) and the infrared fluorescence detected with the Odyssey infrared imaging system (LI-COR, Lincoln, Nebr.). Densitometry analysis of the bands on the Western blots was determined with the LI-COR software analysis program or the ImageQuant software analysis program (Amersham Biosciences, Piscataway, N.J.).

[2] = target: T1, annexin A2 heterotetramer (annexin A2 p36 / S100A10 p11) on monocytes (Homo sapiens, UniProt P07355+P60903); assay: Binding of FITC-labeled plasmin to monocytes, flow cytometry; details: preincubation of monocytes 30 min with agent before plasmin-FITC
T1 construct: Purified human monocytes were fixed and permeablized; endogenous in cells; host or cells: purified human peripheral blood monocytes, fixed and permeabilized
Procedure: (§1) Plasmin activity assay. Plasmin activity was determined with the SPECTROZYME PL kit (American Diagnostica Inc., Stamford, Conn.) which utilizes the chromogenic substrate H-D-norleucyl-hexahydrotyrosol-lysine-para-nitroanilide diacetate. For detection of cell-associated plasmin activity, monocytes were cultured at 1×10^6/well in Hanks Balanced Solution containing calcium and magnesium (Hyclone, Logan, Utah) with the plasmin substrate. Kinetic absorbance readings were measured at 405 nm. RT-PCR. Total cellular RNA was extracted with the RNeasy Mini Kit (QIAGEN® Inc., Valencia, Calif.) 8 hours after stimulation of monocytes with LPS. Transcript levels of MMP-1 were determined using semiquantitative reverse transcriptase-polymerase chain reaction (RT-PCR) with GADPH as an internal control. […] The amplified DNA was separated by 1.7% agarose gel electrophoresis, stained with SYTO 60 red fluorescent nucleic acid stain (Molecular Probes®, Eugene, Oreg.), and the intensity of the stained bands was analyzed with an infrared imaging system. […] FITC-conjugated BSA, plasmin (2.5 μg in 10 μl) or anti-human antibodies (1-2.5 μg/10 μl) then were added, respectively, incubated for 30 min and washed and analyzed by the FACSCalibur system (Becton Dickinson Biosciences, Franklin Lakes, N.J.). […] Flow cytometry results were analyzed by CELLQuest software (Becton Dickinson Biosciences, Franklin Lakes, N.J.). […]

plasmin = target: T2, plasmin (Homo sapiens, UniProt P00747); assay: Cell free plasmin activity assay (SPECTROZYME PL); assay type: biochemical; details: compared with plasmin alone, FIG. 6B
T2 construct: purchased Sigma-Aldrich
Procedure: as §1

annexin A2 on monocytes = target: T3, annexin A2 on monocytes (Homo sapiens, UniProt P07355); assay: Binding of goat anti-human annexin A2 antibodies to monocytes, flow cytometry; details: pre-treated with agent 30 minutes; FIG. 6D
T3 construct: Purified human monocytes were fixed and permeablized; endogenous in cells; host or cells: purified human peripheral blood monocytes, fixed and permeabilized
Procedure: as §1

T1 sequence (P07355 2-339 limits assumed): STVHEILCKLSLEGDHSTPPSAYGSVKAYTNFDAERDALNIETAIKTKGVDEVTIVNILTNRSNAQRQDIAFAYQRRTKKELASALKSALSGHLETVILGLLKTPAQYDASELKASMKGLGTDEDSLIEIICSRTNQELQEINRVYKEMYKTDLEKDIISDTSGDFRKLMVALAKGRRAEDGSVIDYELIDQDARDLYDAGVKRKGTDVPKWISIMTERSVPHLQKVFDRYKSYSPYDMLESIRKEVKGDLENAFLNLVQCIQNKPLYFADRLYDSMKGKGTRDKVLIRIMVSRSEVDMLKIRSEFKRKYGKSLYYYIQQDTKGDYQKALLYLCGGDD
T1 sequence (P60903 2-97 limits assumed): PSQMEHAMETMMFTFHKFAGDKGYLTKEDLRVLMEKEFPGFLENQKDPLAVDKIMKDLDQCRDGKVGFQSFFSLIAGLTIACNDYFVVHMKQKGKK
T3 sequence (P07355 whole entry): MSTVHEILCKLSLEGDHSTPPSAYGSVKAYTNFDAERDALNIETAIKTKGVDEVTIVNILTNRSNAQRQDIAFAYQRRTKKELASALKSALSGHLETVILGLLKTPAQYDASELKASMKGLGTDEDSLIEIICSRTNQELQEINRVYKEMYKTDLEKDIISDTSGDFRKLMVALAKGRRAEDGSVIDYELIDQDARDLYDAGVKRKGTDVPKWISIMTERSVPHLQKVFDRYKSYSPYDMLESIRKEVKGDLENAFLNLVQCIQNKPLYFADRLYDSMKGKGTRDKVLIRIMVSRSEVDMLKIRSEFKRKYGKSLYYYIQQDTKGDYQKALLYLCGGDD

Row | Molecule | effect on HMW-uPA enhancement of MMP-1 [1] | effect on plasmin enhancement of MMP-1 [1] | restoration of MMP-1 after indomethacin inhibition ([1]; PGE2 1 μM added to indomethacin-treated monocytes, FIG. 4C) | effect on LPS-induced MMP-1 production [1] | binding of FITC-labeled plasmin to monocytes [2] | plasmin activity of inactive plasmin combined with plasmin (plasmin) | binding of antibodies against annexin A2 to monocytes (annexin A2 on monocytes)
1 | COc1cccc(-c2cc(=O)c3ccccc3o2)c1N [PD98059] | suppressed the enhancement | suppressed the enhancement |  |  |  |  | 
2 | C[S+]([O-])c1ccc(-c2nc(-c3ccncc3)c(-c3ccc(F)cc3)[nH]2)cc1 (stereo not shown) [SB203580] | suppressed the enhancement | suppressed the enhancement |  |  |  |  | 
3 | CCCCC[C@H](O)/C=C/[C@H]1[C@H](O)CC(=O)[C@@H]1C/C=C\CCCC(=O)O [PGE2, prostaglandin-E2] |  |  | restored, in part |  |  |  | 
4 | COc1ccc2c(c1)c(CC(=O)O)c(C)n2C(=O)c1ccc(Cl)cc1 [indomethacin] | inhibited | inhibited |  | inhibited |  |  | 
5 | B1 |  | inhibited the production of MMP-1 |  | inhibited the production of MMP-1 | blocked the binding | same activity as plasmin alone | blocked the binding
